Reference: patent US12090184B2, “Traditional Chinese medicine composition for treating dermatophytosis and bromhidrosis and application thereof” (JINGCHU UNIVERSITY OF TECHNOLOGY, priority 2019, dated 2024)

Key:
Type in all cases: cell-based
[1] = test system: Candida albicans ATCC90028; assay: in vitro anti-fungal test, 80% MIC (CLSI M-27A3)
From the text: (§1) 1. The present disclosure conducts an in vitro anti-fungal test on the composition extracts in Examples 1 to 3, and the single radix sophorae flavescentis alkaloid and single peristrophe japonica extracts prepared in Example 3. The cell strains used in the test are all ATCC standard strains provided by the Fungi Center of the Medical Microbial (Virus) Species Collection and Management Center of the Ministry of Health, which includes as follows, Aspergillus: Aspergillus fumigatus Strain Number: CMCCC(F) A1g (ATCC-MYA-3626); Candida: Candida albicans Strain Number: CMCCC (F) C.1L (ATCC90028); Trichophyton: Trichophyton rubrum Strain Number: CMCCC(F)T.1h (ATCC-MYA-4438); Trichophyton mentagrophytes Strain Number: CMCCC(F)T.5e (ATCC-MYA-4439).
2. […]
(§2) Before the experiment, after activating the experimental bacteria, yeast are cultured on Sabouraud Dextrose Agar(SDA) medium at 30° C. for 48 hours; filamentous fungi are cultured on potato dextrose agar (PDA) medium at 26° C. for 7 days to 10 days. A suspension is prepared with sterile normal saline, the suspension is counted by a hemocytometer, and is dilute with RMPI-1640 liquid medium containing 2% glucose in multiple amounts to Candida albicans 1.0×10^3 cfu/mL; the other three filamentous fungi are prepared into 2.5×10^4 cfu/mL. […]

[2] = test system: Trichophyton rubrum ATCC-MYA-4438; assay: in vitro anti-fungal test, 80% MIC (CLSI M-38P)
From the text: as §1
(§3) 2. The specific experimental methods are carried out with reference to the standard methods of yeast M-27A3 and filamentous fungi M-38P issued by the Clinical and Laboratory Standards Institute (US, CLSI) of the United States.
as §2, with “cfu/mL. 0.1 mL of bacterial solutions are taken respectively, the culture medium containing the compositions prepared in Examples 1 to 3 and the same doses of the radix sophorae flavescentis alkaloids and the peristrophe japonica extracts prepared in Example 3 are added into each well, wherein the well 11 is a vehicle control, the well 12 is a medium control. 0.1 mL of the diluted solvent is added into the vehicle control well, and 0.1 mL of the distilled water is added into the control well.” for “cfu/mL.”

[3] = test system: Aspergillus fumigatus ATCC-MYA-3626; assay: in vitro anti-fungal test, 80% MIC (CLSI M-38P)
From the text: as §1, §3
as §2, with “cfu/mL. 0.1 mL of bacterial solutions are taken respectively, the culture medium containing the compositions prepared in Examples 1 to 3 and the same doses of the radix sophorae flavescentis alkaloids and the peristrophe japonica extracts prepared in Example 3 are added into each well, wherein the well 11 is a vehicle control, the well 12 is a medium control. 0.1 mL of the diluted solvent is added into the vehicle control well, and 0.1 mL of the distilled water is added into the control well.” for “cfu/mL.”

[4] = test system: Trichophyton mentagrophytes ATCC-MYA-4439; assay: in vitro anti-fungal test, 80% MIC (CLSI M-38P)
From the text: as §1, §3
as §2, with “cfu/mL. 0.1 mL of bacterial solutions are taken respectively, the culture medium containing the compositions prepared in Examples 1 to 3 and the same doses of the radix sophorae flavescentis alkaloids and the peristrophe japonica extracts prepared in Example 3 are added into each well, wherein the well 11 is a vehicle control, the well 12 is a medium control. 0.1 mL of the diluted solvent is added into the vehicle control well, and 0.1 mL of the distilled water is added into the control well.” for “cfu/mL.”

80% MIC [1]: 3.8
80% MIC [2]: 5.6
80% MIC [3]: 4.2
80% MIC [4]: 5.8
Compound: CCC(C)n1ncn(-c2ccc(N3CCN(c4ccc(OCC5COC(Cn6cncn6)(c6ccc(Cl)cc6Cl)O5)cc4)CC3)cc2)c1=O (stereo not shown) [Itraconazole]
